Assay results from US20110086429A1, “METHODS AND DEVICES FOR DETECTING OZONE AND CARBONYL-CONTAINING COMPOUNDS” (SIGMA-ALDRICH CO., priority 2007, published 2011).
Converted amounts (≈) assume the structure as drawn.

Assay: Solubility in acetonitrile, DMSO and their mixtures
Type: physicochemical

Compound	solubility in DMSO (in words) (DMSO)	solubility in acetonitrile (in words) (acetonitrile)	solubility (organic solvent or mixture, acetonitrile, FIG. 3 at 25° C.)
O=[N+]([O-])c1ccc(NN=Cc2ccncc2)c([N+](=O)[O-])c1 [pyridine-4-aldehyde 2,4-DNPhydrazone, pyridine-4-aldehyde 2,4-dinitrophenylhydrazone]	relatively high concentration	poor solubility	
O=Cc1ccncc1 [pyridine-4-aldehyde]			~790 µM (≈ 84.6 µg/mL)
